Laboratory results published in ChEMBL document CHEMBL1275564, “Minimal pharmacokinetic interaction between the human immunodeficiency virus nonnucleoside reverse transcriptase inhibitor etravirine and the integrase inhibitor raltegravir in healthy subjects” (Antimicrob Agents Chemother, 2008).

How the values were obtained:
Type in all cases: ADME, organism-based
[1] = Cmax in healthy human plasma at 200 mg, po twice a day for 8 days by reverse-phase HPLC-MS method; set-up: dose 200 mg, route oral
[2] = Tmax in healthy human plasma at 200 mg, po twice a day for 4 days coadministered with 400 mg of raltegravir, po twice a day for 4 days by reverse-phase HPLC-MS method
[3] = Trough drug concentration at 12 hrs in healthy human plasma at 200 mg, po twice a day for 4 days coadministered with 400 mg of raltegravir, po twice a day for 4 days by reverse-phase HPLC-MS method; conditions: read-out: Cmin
[4] = Tmax in healthy human plasma at 200 mg, po twice a day for 8 days by reverse-phase HPLC-MS method
Homo sapiens [5] = experiment: AUC (0 to 12 hrs) in healthy human plasma at 200 mg, po twice a day for 4 days coadministered with 400 mg of raltegravir, po twice a day for 4 days by reverse-phase HPLC-MS method; set-up: time < 12 hr, dose 200 mg, route oral; conditions: in vivo
Homo sapiens [6] = experiment: AUC (0 to 12 hrs) in healthy human plasma at 200 mg, po twice a day for 8 days by reverse-phase HPLC-MS method; set-up: time < 12 hr, dose 200 mg, route oral; conditions: in vivo
[7] = Trough drug concentration at 12 hrs in healthy human plasma at 200 mg, po twice a day for 8 days by reverse-phase HPLC-MS method; conditions: read-out: Cmin
[8] = Cmax in healthy human plasma at 200 mg, po twice a day for 4 days coadministered with 400 mg of raltegravir, po twice a day for 4 days by reverse-phase HPLC-MS method; set-up: dose 200 mg, route oral
[9] = Trough drug concentration at 12 hrs in healthy human plasma at 400 mg, po twice a day for 4 days coadministered with 200mg of etravirine twice a day for 4 days by reverse-phase HPLC-MS method; conditions: read-out: Cmin
[10] = Tmax in healthy human plasma at 400 mg, po twice a day for 4 days by reverse-phase HPLC-MS method
[11] = Trough drug concentration at 12 hrs in healthy human plasma at 400 mg, po twice a day for 4 days by reverse-phase HPLC-MS method; conditions: read-out: Cmin
[12] = AUC (0 to 12 hrs) in healthy human plasma at 400 mg, po twice a day for 4 days by reverse-phase HPLC-MS method; set-up: dose 400 mg, time < 12 hr, route oral
[13] = AUC (0 to 12 hrs) in healthy human plasma at 400 mg, po twice a day for 4 days coadministered with 200mg of etravirine twice a day for 4 days by reverse-phase HPLC-MS method; set-up: time < 12 hr, dose 400 mg, route oral
[14] = Cmax in healthy human plasma at 400 mg, po twice a day for 4 days by reverse-phase HPLC-MS method; set-up: dose 400 mg, route oral
[15] = Cmax in healthy human plasma at 400 mg, po twice a day for 4 days coadministered with 200mg of etravirine twice a day for 4 days by reverse-phase HPLC-MS method; set-up: dose 400 mg, route oral
[16] = Tmax in healthy human plasma at 400 mg, po twice a day for 4 days coadministered with 200mg of etravirine twice a day for 4 days by reverse-phase HPLC-MS method

Compound `Cc1cc(C#N)cc(C)c1Oc1nc(Nc2ccc(C#N)cc2)nc(N)c1Br` [ETRAVIRINE] has a Cmax [1] of 0.734 µg/mL, a Tmax [2] of 4 h and a concentration at 12 h [3] of 0.439 µg/mL. For the same compound, the Tmax [4] was 4 h, the AUC (Homo sapiens [5]) was 6.81 µg·h/mL and the AUC (Homo sapiens [6]) was 6.22 µg·h/mL. For the same compound, the concentration at 12 h [7] was 0.373 µg/mL and the Cmax [8] was 0.766 µg/mL.

`Cc1nnc(C(=O)NC(C)(C)c2nc(C(=O)NCc3ccc(F)cc3)c(O)c(=O)n2C)o1` [RALTEGRAVIR] gave a concentration at 12 h [9] of 0.142 µM, a Tmax [10] of 1.5 h and a concentration at 12 h [11] of 0.216 µM. It also gave an AUC at 12 h [12] of 7.01 µM·h, an AUC at 12 h [13] of 6.28 µM·h and a Cmax [14] of 1.74 µM. For the same compound, the Cmax [15] was 1.54 µM and the Tmax [16] was 3 h.
